“Also recorded” adds a separate entry of the source.
What was measured:
Type in all cases: cell-based
LTRPC7 [1] = target: T1, LTRPC7 (Mus musculus, UniProt Q923J1); experiment: Permeation of divalent metal ions in isotonic solutions, whole-cell patch-clamp; conditions: for effect on outward current / effect on inward current: isotonic solution (120 mM) of test cation for 60 s, HEK-293 over-expressing LTRPC7; for effect on outward current: +80 mV; for effect on inward current: -80 mV; for permeation sequence based on peak inward currents: isotonic solutions
T1 construct: expressed in transfected cells
Protocol: (§1) For patch-clamp experiments, cells grown on glass coverslips were transferred to the recording chamber and kept in a standard modified Ringer's solution of the following composition (in mM): NaCl 145, KCl 2.8, CsCl 10, CaCl2 1, MgCl2 2, glucose 10, Hepes.NaOH 10, pH 7.2. In some experiments, nominally Ca^2+ and/or Mg^2+-free extracellular solutions or isotonic Ca^2+ solutions (120 mM CaCl2) were applied by pressure ejection from wide-tipped pipettes. Intracellular pipette-filling solutions contained (in mM): Cs-glutamate 145, NaCl 8, MgCl2 1, Cs-BAPTA 10, pH 7.2 adjusted with CsOH. In some experiments, Cs-glutamate was replaced equimolarly by K-glutamate or N-methyl-D-glucamine-chloride. Patch-clamp experiments were performed in the tight-seal whole-cell configuration at 21-25° C. High-resolution current recordings were acquired by a computer-based patch-clamp amplifier system (EPC-9, HEKA, Lambrecht, Germany). Sylgard-coated patch pipettes had resistances between 2-4 M after filling with the standard intracellular solution. Immediately following establishment of the whole-cell configuration, voltage ramps of 50 ms duration spanning the voltage range of −100 to +100 mV were delivered from a holding potential of 0 mV at a rate of 0.5 Hz over a period of 200 to 400 seconds. All voltages were corrected for a liquid junction potential of 10 mV between external and internal solutions when internal solutions contained glutamate. Currents were filtered at 2.3 kHz and digitized at 100 μs intervals. Capacitive currents and series resistance were determined and corrected before each voltage ramp using the automatic capacitance compensation of the EPC-9. The low-resolution temporal development of currents at a given potential was extracted from individual ramp current records by measuring the current amplitudes at voltages of −80 mV or +80 mV.
The use of isotonic solutions to probe divalent cation entry through LTRPC7 avoids complications in permeation properties arising from ion-ion interactions, and therefore allows unequivocal interpretation of inward currents—maintained or increased inward currents can only be consistent with permeation of the available extracellular cation. Isotonic solutions of 120 mM of each divalent ion yielded appropriate osmolarities within 10 mOsm from the standard bath and pipette solutions. In this series of experiments, the cells were bathed in the standard external solution containing 1 mM Ca^2+ and 2 mM Mg^2+. At 200 s, when MagNuM had reached its full amplitude, isotonic solutions of each transition metal were applied for 60 s via a puffer pipette.

LTRPC7 [2] = target: T1, LTRPC7; experiment: Equimolar substitution of 10 mM Ca^2+ by other divalent metal ions, whole-cell patch-clamp; conditions: 10 mM test cation replacing 10 mM Ca^2+, HEK-293 over-expressing LTRPC7; for effect on outward current / effect on inward current: 60 s; for effect on outward current: +80 mV; for effect on inward current / increase in inward current compared to Ca^2+: -80 mV; for increase in inward current compared to Ca^2+: no Mg^2+
Protocol: as §1
LTRPC7 represents an ion channel that is selective for divalent cations at negative membrane potentials and its activity is regulated by intracellular levels of Mg.nucleotides (Nadler et al., 2001). Although the channel readily permeates monovalent ions upon removal of all divalent ions, inward currents carried by LTRPC7 under physiological conditions are largely carried by the dominant extracellular ion species Ca^2+ and Mg^2+. Ion currents carried by LTRPC7 have therefore been designated MagNuM (for Magnesium.Nucleotide-regulated Metal ion currents). In order to assess the permeation properties of LTRPC7 for other divalent ions, we measured ionic currents in substitution experiments, where 10 mM Ca^2+ was replaced with 10 mM of other divalent cations (FIG. 7). In these experiments, HEK-293 cells expressing LTRPC7 were kept in a bath solution containing 10 mM Ca^2+, without Mg^2+, and development of MagNuM was monitored by whole-cell patch-clamp as described previously (Nadler et al., 2001). When the current had reached maximal amplitude, cells were transiently exposed to an extracellular solution containing 10 mM of the test cation applied via a puffer pipette for a period of 60 s.

LTRPC7 [3] = target: T1, LTRPC7; experiment: Permeation and block by trivalent metal ions, whole-cell patch-clamp; conditions: for suppression of inward or outward currents carried by LTRPC7: 10 μM (data not shown); for effect on outward currents / effect on inward currents: external solution with 10 mM Ca^2+ without Mg^2+; for effect on outward currents: +80 mV; for effect on inward currents: -80 mV
Protocol: as §1
We next tested a series of toxic trivalent metal ions (FIG. 10), which we suspected to not permeate through LTRPC7.

LTRPC7 [4] = target: T1, LTRPC7; experiment: Simultaneous patch-clamp of MagNuM and fura-2 measurement of [Ca^2+]i, block by Mg.ATP; conditions: 3 mM Mg.ATP in internal solution
Excerpt: Based on the above permeation data, we conclude that LTRPC7 must be viewed as a potential entry pathway for a wide variety of trace and toxic metal ions. […] We therefore performed two sets of experiments to address this issue. In the first, we assayed Ca^2+ permeation of LTRPC7 under conditions in which intracellular Ca^2+ is left unbuffered and LTRPC7 is activated or suppressed by manipulation of patch pipette [ATP]i. To this end, HEK-293 cells expressing LTRPC7 were kept in a bath solution with 2 mM each of Ca^2+ and Mg^2+ and were perfused with a Cs-glutamate-based internal solution containing 200 μM fura-2. Simultaneous development of MagNuM was monitored under whole-cell patch-clamp and delivering, from a holding potential of 0 mV, repetitive voltage ramps that spanned −100 to +100 mV over 50 ms at a rate of 0.5 Hz. When Mg.ATP was absent in the pipette, MagNuM rapidly activated, as witnessed by the increase in both inward and outward currents (FIG. 11A) as well as its characteristic current-voltage relationship (FIG. 11B). […] The progressive decrease in amplitude of hyperpolarization-driven changes in [Ca^2+]i observed under these conditions is likely due to increased Ca^2+ buffering as fura-2 equilibrates with the cytosol at its final concentration of 200 μM. […]

LTRPC7 [5] = target: T1, LTRPC7; experiment: Mn^2+ quench of fura-2 fluorescence in intact cells; conditions: 1 mM Mn^2+, initial 60 s
Protocol: In the second approach, we assayed LTRPC7 activity in intact cells using Mn^2+ quench of fura-2 fluorescence (FIG. 11D). In this experiment, HEK-293 cells over-expressing LTRPC7 were loaded with fura-2-AM and bathed in standard external solution with 1 mM Ca^2+ and 2 mM Mg^2+. Ca^2+-independent fluorescence was monitored at 360 nm (the isosbestic wavelength of fura-2) and after 120 s, an external solution containing 1 mM Mn^2+, 1 mM Ca^2+, and 0 Mg^2+ was applied for 180 s. To determine baseline quench levels, this protocol was applied to HEK-293 cells that were transfected with the same tetracycline-inducible recombinant LTRPC7 construct, but remained uninduced. As clearly shown in FIG. 11D, the application of 1 mM Mn^2+ caused a pronounced quench of the 360 nm signal in HEK-293 cells induced to express LTRPC7 (n=5), whereas Mn^2+-induced quench of the 360 nm signal in uninduced cells (n=5) was noticeable but much less dramatic. Linear regression over the initial 60 s of Mn^2+ exposure yielded a 10-fold higher rate of Mn^2+-induced quench of fura-2 fluorescence in induced cells (28%/o/min) as compared to uninduced cells (2.9%/min).

T1 sequence (Q923J1 2-1863 limits assumed): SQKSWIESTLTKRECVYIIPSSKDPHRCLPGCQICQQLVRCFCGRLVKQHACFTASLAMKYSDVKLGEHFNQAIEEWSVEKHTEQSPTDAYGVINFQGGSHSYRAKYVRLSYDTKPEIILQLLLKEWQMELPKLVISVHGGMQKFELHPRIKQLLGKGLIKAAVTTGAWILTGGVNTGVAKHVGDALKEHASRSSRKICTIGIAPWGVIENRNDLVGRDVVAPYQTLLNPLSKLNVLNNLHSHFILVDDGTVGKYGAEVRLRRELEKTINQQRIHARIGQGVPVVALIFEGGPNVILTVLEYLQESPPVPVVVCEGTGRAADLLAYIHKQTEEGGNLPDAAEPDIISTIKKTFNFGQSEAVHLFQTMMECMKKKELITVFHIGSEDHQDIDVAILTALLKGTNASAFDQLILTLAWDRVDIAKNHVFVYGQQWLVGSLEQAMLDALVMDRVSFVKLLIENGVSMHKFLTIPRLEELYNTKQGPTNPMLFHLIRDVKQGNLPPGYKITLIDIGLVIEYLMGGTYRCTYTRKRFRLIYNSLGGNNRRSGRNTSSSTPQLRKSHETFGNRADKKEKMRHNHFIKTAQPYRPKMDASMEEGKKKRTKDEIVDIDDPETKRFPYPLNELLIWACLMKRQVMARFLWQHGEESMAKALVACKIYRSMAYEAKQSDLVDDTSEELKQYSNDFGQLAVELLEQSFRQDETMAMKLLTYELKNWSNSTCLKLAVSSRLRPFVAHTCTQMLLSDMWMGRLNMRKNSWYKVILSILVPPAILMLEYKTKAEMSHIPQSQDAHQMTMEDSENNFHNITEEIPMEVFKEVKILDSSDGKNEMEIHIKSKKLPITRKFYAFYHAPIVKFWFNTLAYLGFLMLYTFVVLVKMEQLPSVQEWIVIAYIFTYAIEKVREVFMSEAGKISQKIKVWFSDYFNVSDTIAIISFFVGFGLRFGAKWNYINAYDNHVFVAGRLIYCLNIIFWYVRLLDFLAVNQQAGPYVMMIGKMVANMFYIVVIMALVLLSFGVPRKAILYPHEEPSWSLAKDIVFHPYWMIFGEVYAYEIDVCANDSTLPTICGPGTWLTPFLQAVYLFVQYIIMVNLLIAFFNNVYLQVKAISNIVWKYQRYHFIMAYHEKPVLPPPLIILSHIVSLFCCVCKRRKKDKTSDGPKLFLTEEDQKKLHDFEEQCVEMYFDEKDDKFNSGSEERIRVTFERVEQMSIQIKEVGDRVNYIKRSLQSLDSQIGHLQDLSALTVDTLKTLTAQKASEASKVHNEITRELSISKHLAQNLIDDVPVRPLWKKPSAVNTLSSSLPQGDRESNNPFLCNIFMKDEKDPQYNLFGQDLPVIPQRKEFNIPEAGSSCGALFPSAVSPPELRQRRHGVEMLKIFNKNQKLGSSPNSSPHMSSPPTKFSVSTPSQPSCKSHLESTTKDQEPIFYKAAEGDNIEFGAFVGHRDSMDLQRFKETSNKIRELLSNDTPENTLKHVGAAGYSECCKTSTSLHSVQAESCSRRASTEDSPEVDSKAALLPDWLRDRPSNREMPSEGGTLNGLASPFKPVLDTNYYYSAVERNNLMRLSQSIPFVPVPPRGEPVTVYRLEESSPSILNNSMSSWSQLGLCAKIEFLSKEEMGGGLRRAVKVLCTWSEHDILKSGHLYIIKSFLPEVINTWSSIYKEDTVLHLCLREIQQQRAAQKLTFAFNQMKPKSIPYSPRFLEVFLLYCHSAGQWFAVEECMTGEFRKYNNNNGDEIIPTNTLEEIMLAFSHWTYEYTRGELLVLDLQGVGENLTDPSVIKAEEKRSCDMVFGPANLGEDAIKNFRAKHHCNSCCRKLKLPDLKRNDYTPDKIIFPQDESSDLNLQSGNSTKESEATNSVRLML

increase in inward current compared to Ca^2+ (LTRPC7 [2]) | SMILES | effect on outward current (LTRPC7 [1]) | effect on inward current (LTRPC7 [1]) | effect on outward current (LTRPC7 [2]) | effect on inward current (LTRPC7 [2]) | also measured
 | [Ba+2] [Ba^2+] | relatively minor inhibitions of the outward current | moderate increases of the inward | increase of the outward current | slight to moderate increase of the inward current | permeation sequence based on peak inward currents (LTRPC7 [1]): more effectively transported than Ca^2+ and Mg^2+
 | [Ca+2] [Ca^2+] | block of the outward current | increase of the inward |  |  | effect on outward current (LTRPC7 [1]; listed as CaCl2): strongly inhibited outward currents; effect on inward current (LTRPC7 [1]; listed as CaCl2): enhanced inward currents
 | [Cd+2] [Cd^2+] |  |  | increases of the outward current | slight to moderate increases of the inward current | effect on outward current (LTRPC7 [2]; listed as Cd 2+): increase of the outward current; effect on inward current (LTRPC7 [2]; listed as Cd 2+): slight to moderate increase of the inward current
 | [Gd+3] [Gd^3+] |  |  |  |  | suppression of inward or outward currents carried by LTRPC7 (LTRPC7 [3]): ineffective; relative potency as blocker of MagNuM (LTRPC7 [3]; 10 mM, Gd^3+ versus La^3+): more potent inhibitor; also recorded: more potent blocker of MagNuM; effect on outward currents (LTRPC7 [3]; 10 mM): completely suppressed; effect on inward currents (LTRPC7 [3]; 10 mM): inhibited inward currents with no sign of significant permeation
 | [La+3] [La^3+] |  |  |  |  | suppression of inward or outward currents carried by LTRPC7 (LTRPC7 [3]): ineffective; effect on outward currents (LTRPC7 [3]; 10 mM): far less effective in suppressing outward currents; effect on inward currents (LTRPC7 [3]; 10 mM): inhibited inward currents with no sign of significant permeation
 | Nc1ncnc2c1ncn2[C@@H]1O[C@H](COP(=O)(O)OP(=O)([O-])OP(=O)([O-])O)[C@@H](O)[C@H]1O.[Mg+2] [Mg.ATP] |  |  |  |  | [Ca^2+]i (fura-2) (LTRPC7 [4]; HEK-293 over-expressing LTRPC7): remained similarly steady; also recorded: remains at steady basal levels; LTRPC7 activity (MagNuM currents) (LTRPC7 [4]; bath 2 mM Ca^2+ and 2 mM Mg^2+): little change in LTRPC7 activity
less than double | [Mg+2] [Mg^2+] | block of the outward current |  | strongest block of outward currents; also recorded: block of the outward current | slight to moderate increase of the inward current | 
less than double | [Mn+2] [Mn^2+] | strong block of the outward current | gradual increase of the inward current | block of outward currents; also recorded: block of the outward current | slight to moderate increase of the inward current | rate of Mn^2+-induced quench, induced compared to uninduced cells (LTRPC7 [5]): 10 fold; rate of Mn^2+-induced quench of fura-2 fluorescence (LTRPC7 [5]; 360 nm, uninduced cells): 2.9 %/min
 | [Sr+2] [Sr^2+] | relatively minor inhibitions of the outward current | moderate increases of the inward | increases of the outward current | slight to moderate increases of the inward current | permeation sequence based on peak inward currents (LTRPC7 [1]): more effectively transported than Ca^2+ and Mg^2+; effect on outward current (LTRPC7 [2]; listed as Sr2+): increase of the outward current; effect on inward current (LTRPC7 [2]; listed as Sr2+): slight to moderate increase of the inward current
greater than three-fold | [Zn+2] [Zn^2+] |  |  | block of outward currents; also recorded: block of the outward current | large increase of the inward current | 

SMILES | increase in inward current compared to Ca^2+ (LTRPC7 [2]) | effect on outward current (LTRPC7 [1]) | effect on inward current (LTRPC7 [1]) | effect on outward current (LTRPC7 [2]) | effect on inward current (LTRPC7 [2]) | also measured
[Co+2] [Co^2+] | less than double | strong block of the outward current | gradual increase of the inward current | block of outward currents; also recorded: block of the outward current | slight to moderate increase of the inward current | 
[Ni+2] [Ni^2+] | greater than three-fold | strong block of the outward current | large increase of the inward | block of outward currents; also recorded: block of the outward current | large increase of the inward current | permeation sequence based on peak inward currents (LTRPC7 [1]): most permeant metal
